We go through one compound from article PMC11096368, “Transcriptomic signature, bioactivity and safety of a non-hepatotoxic analgesic generating AM404 in the midbrain PAG region” (Scientific Reports, 2024).

Series [1] is described as follows: 5-day repeat-dose oral toxicity and toxicokinetic study (non-GLP). It counts as in vivo, rats. Conditions: Sprague-Dawley, rat, blood, po. The procedure: (§1) As part of a two-phase study, repeat-dose toxicity and toxicokinetics of SRP-001, when administered via oral gavage once daily to Sprague–Dawley rats for 5 d, was done (Calvert Labs/Altasciences, Scott Township, PA USA). The doses selected for Phase II were based on the results of Phase I. SRP-001 was administered to 20 naïve rats (5/group in Groups 5–8) once daily for 5 days via oral gavage for toxicology evaluation and once to 18 naïve rats (6/group in Groups 9–11) for toxicokinetic evaluation.
(§2) Mortality/morbidity was performed twice daily and once prior to sacrifice. Clinical observations were evaluated prior to each dose administration and approximately 1–3 h post-dose for animals in Groups 5–8. Body weights were recorded prior to randomization/selection, prior to dose administration on day 1 for animals in Groups 5–11, and prior to dose administration on day 5 for Groups 5–8. Food consumption was recorded for animals from Groups 5–8 on day 5. Blood for evaluation of hematology, coagulation and clinical chemistry and urine for urinalysis was collected from animals in Groups 5–8 on day 6. All animals in Groups 5–8 were sacrificed on […]. Selected tissues were harvested at necropsy, selected organs weighed, and selected tissues preserved. Blood for toxicokinetic evaluation was collected from animals in Groups 9–11 at selected timepoints on day 1 to ensure comprehensive data capture. These timepoints include 0 h (pre-dose) and post-dose intervals of 1, 2, 4, 8, and 24 h on both Day 1 and […] of the study. This schedule allows for a robust assessment of SRP-001's pharmacokinetic profile, including absorption, distribution, metabolism, and excretion and is in line with current FDA-guidelines for GLP studies.
(§3) Clinical signs included soft feces, brown staining of the anogenital area, and a few instances of red staining of the muzzle. […] Half-lives were 6.19 and 6.86 h at mid and high doses, respectively. […] Based on these observations, SRP-001 was considered to be tolerated at 1200 mg/kg when administered once daily for 5 consecutive days.

For the next series, the system named is Sprague–Dawley rats. The series is described as above. Format: in vivo. How it is done: as §1, §2, §3

In the case of `CCN(CC)C(=O)c1ccccc1S(=O)(=O)NCC(=O)Nc1ccc(O)cc1` [SRP-001, N,N-diethyl-2-[[2-(4-hydroxyanilino)-2-oxo-ethyl]sulfamoyl]benzamide], the half-life is 412 min in series [1] (high dose) and 371 min in series [1] (mid dose). Besides, the Tmax in series [1] (low dose) came out at 3 h; in series [1] (mid and high doses) it was 4.5 h. Moreover, the “AUC and Cmax levels versus dose” value in the series with Sprague–Dawley rats (day 1) is “increased in a dose-dependent manner”. Also, the “Dose considered to be tolerated” value with Sprague–Dawley rats (once daily for 5 consecutive days) is 1200 mg/kg. The “Liver weights and cholesterol levels” value with Sprague–Dawley rats (once daily for 5 days) is given as “Test article-related increases”.
